Source: paper PMC10604720, “Unraveling the Mechanism of Epichaperome Modulation by Zelavespib: Biochemical Insights on Target Occupancy and Extended Residence Time at the Site of Action” (Biomedicines, 2023)

System: epichaperome
Experiment: Target occupancy by zelavespib using tracer [131I]-PU-AD and gamma counting in MDA-MB-468 tumors
Format: in vivo, mouse
Conditions: for target occupancy: MDA-MB-468 tumor, 50 mg/kg; for target occupancy, accounting for background signal: background radioactivity of normal tissues (heart) subtracted
Method: MDA-MB-468 (RRID:CVCL_0419) tumor xenografts were established on the forelimbs of female athymic nude mice (Hsd:Athymic Nude-Foxn1^nu; Envigo; 5 weeks old; RRID:MGI:5652489) by subcutaneous (s.c.) injection of 7 × 10^6 cells in a 300 µL cell suspension of a 1:1 v/v mixture of PBS with reconstituted basement membrane (BD Matrigel^TM, Collaborative Biomedical Products Inc., Bedford, MA, USA). Tumor progression was monitored using vernier calipers. For biodistribution studies, female athymic nude mice with MDA-MB-468 tumor xenografts (~200–300 mm^3) on the forelimbs were injected intravenously in the tail vein with zelavespib (50 mg/kg (PU-H71.HCl formulated in 10 mM Phosphate Buffer, pH = ~6.4)) at different time points (0 (co-injection), 6, 24, and 48 h) prior to tracer administration. At designated time points post-drug administration, mice were injected intravenously in the tail vein with 0.93–1.1 MBq (25–50 µCi) of [^131I]-PU-AD in 200 µL of 5% ethanol in saline. The activity in the syringe before and after administration was assayed in a dose calibrator (CRC-15R; Capintec, Florham Park, NJ, USA) to determine by difference the actual activity administered to each animal. Animals were euthanized by CO2 asphyxiation at 24 h post-administration of the radiolabeled [^131I]-PU-AD tracer, and organs, including tumor(s), were harvested and weighed. ^131I was measured in a 2480 WIZARD automatic gamma counter (PerkinElmer, Waltham, MA, USA) using a 260–430 keV energy window. Count data were background- and decay-corrected to the time of injection, and the percent injected dose per gram (%ID/g) for each tissue sample was calculated using a measured ^131I calibration factor to convert count rate to activity and the activity was normalized to the activity injected and the weighed mass of the sample to yield the activity concentration in %ID/g.
The drug could be trapped in non-tumor areas (i.e., stroma or necrotic tissue) or be intracellular but not target-bound. To test this notion and determine the percentile target occupied by each of these intratumoral concentrations of zelavespib, we performed studies in which tracer amounts (that is, non-pharmacologically perturbing amounts) of the radiolabeled epichaperome ligand [^131I]-PU-AD (~6 ng/g which is ~1/10,000 of the therapeutic zelavespib amount) were administered to mice intravenously 24 h prior to tumor zelavespib measurements (Figure 2a). The ^131I isotope has a half-life of 8 days, making it suitable for measurements of drugs with an extended tumor retention profile, such as that observed for zelavespib. It emits γ radiation and β particles; thus, γ-counting can be applied to detect and quantify the radioactive signal in tumors and tissues upon mouse sacrifice. Because both zelavespib and [^131I]-PU-AD bind to the same target, the epichaperome, the more zelavespib that is present in the tumor and is target-bound, the lower the radioactivity signal is in the tumor.
Figure 3 Relationship between molar concentration and target engagement in MDA-MB-468 tumor-bearing mice. (a) Tumor molar concentrations of zelavespib experimentally determined by LC–MS/MS upon administration of single-dose 50 mg/kg zelavespib and sacrificing the mice at 30 h, 48 h, and 72 h post-zelavespib administration (n = 5 mice per time-point). Data are presented as means ± s.e.m., n = 5, one-way ANOVA with Dunnett’s post hoc. Controls: PU-24h, mice were injected 50 mg/kg zelavespib, and tumor concentrations of the drug were determined at 24 h post-injection using LC–MS/MS. Vehicle, mice were injected vehicle only. (b) Target engagement by zelavespib was determined by co-injection of zelavespib with a trace amount of [^131I]-PU-AD. Zelavespib was administered 6, 24, and 48 h prior to [^131I]-PU-AD. […]

**Q.** How did the target occupancy (30 h post single 50 mg/kg i.v.) turn out when `CC(C)NCCCn1c(Sc2cc3c(cc2I)OCO3)nc2c(N)ncnc21` [zelavespib] was run?
**A.** 38.8%

**Q.** What about the “target occupancy, accounting for background signal” value (from here on “target occupancy, accounting”) (30 h post single 50 mg/kg i.v.) of the same molecule?
**A.** 41.5%

**Q.** What about the target occupancy (48 h post single 50 mg/kg i.v.) of the same molecule?
**A.** 24.9%

**Q.** And the “target occupancy, accounting” value (48 h post single 50 mg/kg i.v.)?
**A.** 22.4%

**Q.** What about the “target occupancy, accounting” value (72 h post single 50 mg/kg i.v.) of the same molecule?
**A.** 3.5%

**Q.** What about the “remaining intratumoral zelavespib that is target-bound” value (72 h post-injection) of the same molecule?
**A.** about 50%
